From patent US12448372B2, “Class of triaromatic compounds targeting bifunctional phosphorylation site of STAT3 and applications thereof” (SHANGHAI YUYAO BIOTECH LTD., priority 2019, dated 2025)
Entries after “also recorded” stand apart in the source; their conditions may differ. Where two headings read alike, the source gives them in different places.

What was measured:
[1] = tested on: Capan-2; experiment: Cell proliferation by MTS method, Capan-2; assay type: cell-based; details: Homo sapiens
Procedure, shortened: (§1)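 Seed 1-20×10^3 cells/well; adhere; compound dilutions vs medium control, 24-96 h. MTS, dark, 37° C.; A490. n=3; IC50.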

[2] = tested on: MKN45; experiment: Cell proliferation by MTS method, MKN45; assay type: cell-based; details: Homo sapiens, MKN-45
Procedure, shortened: as §1

[3] = tested on: Huh7; experiment: Cell proliferation by MTS method, Huh7; assay type: cell-based; details: Homo sapiens, Huh-7
Procedure, shortened: as §1

[4] = tested on: HCC827; experiment: Cell proliferation by MTS method, HCC827; assay type: cell-based; details: Homo sapiens
Procedure, shortened: as §1

[5] = tested on: MIAPACA-2; experiment: Cell proliferation by MTS method, MIAPACA-2; assay type: cell-based; details: Homo sapiens, MIA PaCa-2, Pancreatic Cancer
Description: (§2) (2) Detection of Cell Proliferation by MTS Method
(§3) The MTS assay is a method for indirectly determining the number of living cells via colourimetric method. MTS is a newly synthesised tetrazole compound that reflects cell viability, which can be reduced by succinate dehydrogenase in the mitochondria of living cells to an orange-coloured formazan with an absorbance of the reduced product measured at 490 nm being in proportion to the number of living cells, thus reflecting the cell viability. This assay can be used to evaluate the effect of the compound on the proliferation of pancreatic cancer cells, thereby determining the inhibitory effect of the compound on the proliferation of pancreatic cancer cells and to calculate the IC^50. Each cells were inoculated uniformly into a 96-well plate at a density of 1-20×10^3 cells/well, 100 μL per well, and placed in a constant temperature incubator until the cells adhered to the wall. […] Under light-proof conditions, MTS was added and well mixed, the mixture was placed in a constant temperature incubator at 37° C., and the light absorption value were measured using an enzyme marker at 490 nm and the experiment was repeated for three times, IC50 was calculated with GraphPad5 Prism software.

[6] = tested on: SW1990; experiment: Cell proliferation by MTS method, SW1990; assay type: cell-based; details: Homo sapiens, Pancreatic Cancer
Description: as §2, §3

[7] = tested on: BGC823; experiment: Cell proliferation by MTS method, BGC823; assay type: cell-based; details: Homo sapiens, BGC-823, gastric Cancer
Description: as §2, §3

[8] = tested on: DU145; experiment: Cell proliferation by MTS method, DU145; assay type: cell-based; details: Homo sapiens, DU-145, Prostate Cancer
Description: as §2, §3

[9] = tested on: LNCAP; experiment: Cell proliferation by MTS method, LNCAP; assay type: cell-based; details: Homo sapiens, Prostate Cancer
Description: as §2, §3

[10] = tested on: HCT8; experiment: Cell proliferation by MTS method, HCT8; assay type: cell-based; details: Homo sapiens, HCT-8, Colon Cancer
Description: as §2, §3

[11] = tested on: HT29; experiment: Cell proliferation by MTS method, HT29; assay type: cell-based; details: Homo sapiens, HT-29, Colon Cancer
Description: as §2, §3

[12] = tested on: H460; experiment: Cell proliferation by MTS method, H460; assay type: cell-based; details: Homo sapiens, NCI-H460, Lung Cancer
Description: as §2, §3

[13] = tested on: H23; experiment: Cell proliferation by MTS method, H23; assay type: cell-based; details: Homo sapiens, NCI-H23, Lung Cancer
Description: as §2, §3

[14] = tested on: H1299; experiment: Cell proliferation by MTS method, H1299; assay type: cell-based; details: Homo sapiens, NCI-H1299, Lung Cancer
Description: as §2, §3

[15] = tested on: PC-9; experiment: Cell proliferation by MTS method, PC-9; assay type: cell-based; details: Homo sapiens, Lung Cancer
Description: as §2, §3

[16] = tested on: HepG2; experiment: Cell proliferation by MTS method, HepG2; assay type: cell-based; details: Homo sapiens, Liver Cancer
Description: as §2, §3

[17] = tested on: HCCC9810; experiment: Cell proliferation by MTS method, HCCC9810; assay type: cell-based; details: Liver Cancer
Description: as §2, §3

[18] = tested on: STAT3-Tyr705 and Ser727 in pancreatic cancer cells; experiment: Western blot of STAT3 phosphorylation in pancreatic cancer cells; assay type: cell-based; details: 12-24 h, FIG. 1A
Description: Finally, the expression levels of protein were detected by Odyssey scanner.

[19] = tested on: Human pancreatic cancer cells (ASPC-1); experiment: In situ growth metastasis model of pancreatic cancer, ASPC-1 in nude mice; assay type: in vivo; details: in situ growth metastasis model (ASPC-1), nude mice, 5, 10, 20 mg/kg by gavage once a day, FIG. 4D
Experimental: (2) In situ growth metastasis model of pancreatic cancer. Human pancreatic cancer cells (ASPC-1) were used to bear tumors in the pancreas of age-appropriate nude mice, 6 or more mice in each group. One week after injection of tumour cells, all mice were randomly divided to the control group, WB737-5 mg/kg low dose group, 10 mg/kg medium dose group, 20 mg/kg high dose group and positive compound group. Different doses of WB737 or the positive compound were administered by gavage, and mice of control group were administered the same dose of solvent orally […], dosing once a day. During the experiment, the time and number of mice died due to pancreatic cancer metastasis were counted, and the results of the experiment were counted and survival curves were plotted.

[20] = target: STAT3 SH2 domain (Homo sapiens, UniProt P40763); experiment: Microscale thermophoresis binding to STAT3 SH2 domain; details: MST, FIG. 5A; read-out: affinity for the STAT3 SH2 domain
Description: The microscale thermophoresis (MST) technique is a simple, rapid, and accurate method for quantifying biomolecular interactions. It can measure the movement of molecules in a microscopic temperature gradient field, as well as detect changes of molecular hydration shell, charge and size. When the Nanotemper microscale thermophoresis instrument locally heated by a infrared laser, molecules will move in a directional manner, then the molecular distribution ratio in the temperature gradient field are analyzed by a fluorescence to detect whether a small molecule compound binds to a target protein. The experimental operation is as follows: firstly, compounds to be tested are diluted in a gradient using MST test buffer, total 16 concentrations being configured; subsequently, the purified STAT3 recombinant protein is labeled using the HIS tag labeling kit, and the final concentration of the labeled protein is 100-200 nM; the labeled STAT3 proteins are well mixed with the diluted compounds and incubated and protected from light for 30 minutes; finally the samples were loaded by capillary tube and detected on the instrument. The binding constants (K^D) of small molecules to STAT3 protein were analyzed by Mo. analysis software.
(1) Microscale Thermophoresis Experiment
The method is as described in Example 40.

[21] = Acute toxicological experiments, survival of normal mice; details: dose of 80 mg/kg, FIG. 5E
[22] = tested on: human pancreatic cancer cells PANC-1; experiment: Subcutaneous tumor-bearing experiment in nude mice, PANC-1
Experimental: (1-10)×10^6 human pancreatic cancer cells PANC-1 and MIAPACA-2 were injected subcutaneously into the right side of the back of immunodeficient mice (BALB/c-nude, nude mice, 5-6 weeks), and when the tumours grew to about 100 mm^3, the mice were evenly divided into five groups, i. e. blank control group; 5 mg/kg WB737 low-dose group; 10 mg/kg WB737 medium-dose group; 20 mg/kg WB737 high-dose group; 10 mg/kg IACS-010759 positive control group; all the above compounds were formulated with 0.5% MC and administered by gavage. Tumour volume and mouse weight were measured every four days, and tumour volume was calculated according to the formula of volume=length×width^2×0.52. After 3 weeks post-administration, mice were sacrificed and subcutaneous tumours were peeled off, weighed and photographed.

Chain of STAT3 SH2 domain (P40763 580-670 limits assumed): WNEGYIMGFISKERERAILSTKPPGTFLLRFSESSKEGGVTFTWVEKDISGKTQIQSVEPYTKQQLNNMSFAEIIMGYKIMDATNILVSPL

Cn1c(C(=O)N2CCN(Cc3ccc(OCC(F)(F)F)cc3)CC2)cc2ccc(Oc3cnc(-c4nc(-c5ccc(C(F)(F)F)cc5)no4)cn3)cc21 [Example 6, (6-((5-(3-(4-(trifluoromethyl)phenyl)-1,2,4-oxadiazol-5-yl)pyrazin-2-yl)oxy)1-methyl-1H-indol-2-yl)(4-(4-(2,2,2-trifluoroethoxy)benzyl)piperazin-1-yl)methanone]
IC50 ([1]; Pancreatic Cancer, Capan-2, read-out: IC50): 9.4 nM
IC50 ([1]; Table 1, Capan-2, read-out: Tumour cell proliferative activity/IC50(nM) Pancreatic Cancer Capan-2): < 10 nM
IC50 ([2]; Table 1, MKN45, read-out: Tumour cell proliferative activity/IC50(nM) gastric Cancer MKN45): < 10 nM
IC50 ([2]; gastric Cancer, MKN45, read-out: IC50): 1.6 nM
IC50 ([3]; Liver Cancer, Huh7, read-out: IC50): 8.6 nM
IC50 ([3]; Table 1, Huh7, read-out: Tumour cell proliferative activity/IC50(nM) Liver Cancer Huh7): < 10 nM
IC50 ([4]; Lung Cancer, HCC827, read-out: IC50): 0.5 nM
IC50 ([4]; Table 1, HCC827, read-out: Tumour cell proliferative activity/IC50(nM) Lung Cancer HCC827): < 10 nM
IC50 [5]: 8.8 nM
IC50 [6]: 1.3 nM
IC50 [7]: 6.1 ± 0.9 nM
IC50 [8]: 12.4 nM
IC50 [9]: 10.3 nM
IC50 [10]: 20.9 nM
IC50 [11]: 31.6 nM
IC50 [12]: 4.6 nM
IC50 [13]: 2.9 nM
IC50 [14]: 26 nM
IC50 [15]: 21.3 nM
IC50 [16]: 12 nM
IC50 [17]: 73.3 nM
concentration that completely inhibits the expression of STAT3-Tyr705 and Ser727 [18]: lower than 50 nM
survival of mice [19]: significantly prolongs the survival of mice
Kd [20]: 2.25 nM
mortality of normal mice [21]: no mice died
effect on the body weight of mice ([22]; PANC-1 subcutaneous model, gavage, WB737 5-20 mg/kg, IACS-010759 10 mg/kg, FIG. 2D/5C): no significant effect on the body weight of mice; also recorded: good tolerability
tumor growth (tumor volume and tumor weight) ([22]; PANC-1 subcutaneous, BALB/c-nude mice, 5, 10, 20 mg/kg by gavage, 3 weeks, FIG. 2): significantly inhibits the growth of pancreatic tumour
phosphorylation of STAT3^Y705/S727 bifunctional phosphorylation site in tumour tissue (WB and IHC) ([22]; PANC-1 tumour tissues, FIG. 2E and 2F): dose-dependently inhibits phosphorylation
